We go through six compounds from US9879002B2, “PDE10 inhibitors and related compositions and methods” (Omeros Corporation, priority 2015, dated 2018).

Data set [1] is described as follows: Solubility assay in simulated Intestinal Fluid pH 7.5. In kind it is physicochemical. The settings on record: fassgf or other biorelevant, kinetic from dmso stock, shaken 24 hours at room temperature, from 10 mM DMSO stock, detection limit approximately 1 μM, read-out: Solubility test results: Conc. (μM), pH 7.5 (IF). The protocol: Solubility of each compound was measured by adding 4 μl of a 10 mM DMSO compound stock to 396 μl buffer (either a simulated Gastric Fluid pH 1.2 (0.2% NaCl, 0.7% HCl) or simulated Intestinal Fluid pH 7.5 (0.68% KHPO4, pH with NaOH)). This was shaken for 24 hours at room temperature, spun at 14,000 rpm for 5 minutes, and the supernatant was transferred into a clean eppendorf tube. The absorption spectra of the compound-containing supernatant were measured from 220 to 400 nm and compared with the absorption spectra of a 10 μM acetonitrile stock of the same compound. The concentration of the compound in the supernatant was calculated by comparing the absorbance maximum of the compound in the simulated buffer to that in acetonitrile.

Data set [2] concerns the target PDE10 (Homo sapiens, UniProt Q9Y233). Put plainly: PDE10 biochemical assay (scintillation proximity assay, [3H]-cGMP substrate). The protocol:
The phosphodiesterase (PDE) activity was measured using a scintillation proximity assay (SPA) with [^3H]-cGMP as the substrate. Purified PDE10 was stored in 40 mM Tris-Cl (pH 8.0)/100 mM NaCl/0.04% Tween-20/20% Glycerol/3 mM DTT and then used to prepare a 10×PDE solution in 50 mM Tris-Cl (pH 7.5)/8.3 mM MgCl2/1.7 mM EGTA. Assays contained (final concentrations): 50 mM Tris-Cl (pH 7.5)/8.3 mM MgCl2/1.7 mM EGTA/0.5 mg/ml BSA/1% DMSO and 2 ng PDE10 in a final volume of 0.1 mL. Inhibition was evaluated at 8 concentrations in duplicate. Reactions were initiated by addition of enzyme and were terminated after 20 minutes at 30° C. by the addition of 50 μl of SPA beads containing Zn^++. The mixture was shaken, allowed to settle for at least 1 hour, and counted in a Wallac plate counter. Results (net cpm) were fitted to a four parameter logistic model using Excel Solver®.
A general note: SPA uses beads or plates that emit light when radiolabelled molecules are held near them.

Data set [3] concerns the target T1, PDE10 (Mus musculus, UniProt Q8CA95).
T1 sequence (Q8CA95 1-790): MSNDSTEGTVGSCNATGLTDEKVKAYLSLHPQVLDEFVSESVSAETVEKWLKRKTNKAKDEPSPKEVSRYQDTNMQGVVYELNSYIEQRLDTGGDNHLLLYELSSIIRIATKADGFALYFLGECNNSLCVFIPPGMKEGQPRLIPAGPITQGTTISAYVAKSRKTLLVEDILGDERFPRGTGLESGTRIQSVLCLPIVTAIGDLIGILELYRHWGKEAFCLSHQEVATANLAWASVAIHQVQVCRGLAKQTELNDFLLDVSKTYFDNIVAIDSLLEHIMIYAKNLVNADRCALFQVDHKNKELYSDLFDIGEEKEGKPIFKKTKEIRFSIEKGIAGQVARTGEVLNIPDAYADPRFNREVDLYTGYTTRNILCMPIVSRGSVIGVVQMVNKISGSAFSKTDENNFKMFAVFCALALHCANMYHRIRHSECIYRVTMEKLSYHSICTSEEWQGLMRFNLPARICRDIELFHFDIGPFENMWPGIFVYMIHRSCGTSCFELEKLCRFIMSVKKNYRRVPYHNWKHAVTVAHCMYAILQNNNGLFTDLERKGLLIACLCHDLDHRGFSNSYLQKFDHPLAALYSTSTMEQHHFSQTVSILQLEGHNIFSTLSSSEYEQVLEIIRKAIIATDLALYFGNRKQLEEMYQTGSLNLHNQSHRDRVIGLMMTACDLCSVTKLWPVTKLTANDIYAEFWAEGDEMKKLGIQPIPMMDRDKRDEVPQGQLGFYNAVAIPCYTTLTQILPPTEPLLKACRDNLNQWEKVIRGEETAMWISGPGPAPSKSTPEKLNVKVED
The settings on record: cited from Soderling and Beavo 2000; read-out: IC50 (50% inhibitory concentration); cited from earlier work.

Setting [4] is: SPA, [3H]-cGMP, 20 minutes at 30° C., 8 concentrations in duplicate, read-out: Average IC50.
Where [5] appears, read: text statement on the PDE10 biochemical assay, read-out: IC50.

≈ marks a conversion by molar mass, not a printed value. Where two headings read alike, the source gives them in different places.

Chain of PDE10 (Homo sapiens, UniProt Q9Y233) (Q9Y233 whole entry): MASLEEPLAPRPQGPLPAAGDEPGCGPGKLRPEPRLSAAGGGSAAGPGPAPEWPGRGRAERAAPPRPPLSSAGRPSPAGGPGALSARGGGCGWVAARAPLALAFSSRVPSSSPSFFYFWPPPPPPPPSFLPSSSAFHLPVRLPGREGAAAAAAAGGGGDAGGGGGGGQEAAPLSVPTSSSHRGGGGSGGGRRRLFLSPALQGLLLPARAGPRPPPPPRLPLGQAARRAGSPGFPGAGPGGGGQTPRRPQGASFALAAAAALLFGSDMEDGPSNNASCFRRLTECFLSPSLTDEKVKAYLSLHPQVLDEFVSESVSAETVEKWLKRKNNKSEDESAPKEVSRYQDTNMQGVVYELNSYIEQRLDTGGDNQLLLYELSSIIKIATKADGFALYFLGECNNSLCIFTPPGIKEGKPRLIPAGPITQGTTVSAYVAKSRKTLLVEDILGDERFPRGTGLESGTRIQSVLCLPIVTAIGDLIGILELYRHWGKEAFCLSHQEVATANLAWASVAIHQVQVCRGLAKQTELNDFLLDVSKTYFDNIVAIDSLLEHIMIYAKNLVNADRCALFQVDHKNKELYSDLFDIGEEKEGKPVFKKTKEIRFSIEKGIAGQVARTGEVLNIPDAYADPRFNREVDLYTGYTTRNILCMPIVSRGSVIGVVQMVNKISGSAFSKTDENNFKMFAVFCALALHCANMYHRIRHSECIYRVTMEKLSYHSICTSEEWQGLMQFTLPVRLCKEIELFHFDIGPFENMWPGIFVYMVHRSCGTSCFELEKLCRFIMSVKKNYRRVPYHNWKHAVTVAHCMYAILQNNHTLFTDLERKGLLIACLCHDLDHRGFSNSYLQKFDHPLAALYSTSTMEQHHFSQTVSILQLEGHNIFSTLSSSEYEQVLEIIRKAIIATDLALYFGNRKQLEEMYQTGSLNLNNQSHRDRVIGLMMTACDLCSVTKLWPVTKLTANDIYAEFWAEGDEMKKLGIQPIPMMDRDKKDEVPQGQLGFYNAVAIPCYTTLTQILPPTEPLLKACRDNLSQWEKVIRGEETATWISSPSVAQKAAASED

One may read the solubility as how much of the substance goes into solution per volume. On to `CCOC(C(=O)c1ccc(-c2cc(O)c(Cl)c(OC)c2)o1)c1ccc(-c2nnc(C)s2)cc1` (centres unmarked) [Compound 1, 1-[5-(4-chloro-3-hydroxy-5-methoxyphenyl)furan-2-yl]-2-ethoxy-2-[4-(5-methyl-1,3,4-thiadiazol-yl)phenyl]ethanone], for which, in data set [1], the solubility at 24 h was 2.5 µM (≈ 1.21 µg/mL). For the same compound, the IC50 in data set [2] (setting [4]) was 37.7 nM; in data set [2] (setting [5]), no more than 1000 nM.
The matching figures for `CCOC(C(=O)c1ccc(-c2cc(OC)c(Cl)c(OC)c2)o1)c1ccc(-c2nnc(CO)s2)cc1` (centres unmarked) [Compound 2, 1-(5-(4-chloro-3,5-dimethoxyphenyl)furan-2-yl)-2-ethoxy-2-(4-(5-(hydroxymethyl)-1,3,4-thiadiazol-2-yl)phenyl)ethan-1-one]: 5.8 µM (≈ 2.99 µg/mL), 1.3 nM and no more than 1000 nM.
The matching figures for `CCOC(C(=O)c1ccc(-c2cc(OC)c(Cl)c(O[C@H]3O[C@H](C(=O)O)[C@@H](O)[C@H](O)[C@H]3O)c2)o1)c1ccc(-c2nnc(C)s2)cc1` (stereo partly drawn) [Compound 3, (2S,3S,4S,5R,6R)-6-(2-chloro-5-(5-(2-ethoxy-2-(5-methyl-1,3,4-thiadiazol-2-yl)phenyl)acetyl)furan-2-yl-methoxyphenoxy)-3,4,5-trihydroxytetrahydro-2H-pyran-2-carboxylic acid]: 78.3 µM (≈ 51.8 µg/mL), 652 nM and no more than 1000 nM.
On to `CCOC(c1ccc(-c2nnc(C)s2)cc1)C(O)c1ccc(-c2cc(OC)c(Cl)c(OC)c2)o1` (centres unmarked) [Compound 4, 1-(5-(4-chloro-3,5-dimethoxyphenyl)furan-2-yl)-2-ethoxy-2-(4-(5-methyl-1,3,4-thiadiazol-2-yl)phenyl)ethan-1-ol], for which the solubility at 24 h in data set [1] is 2.5 µM (≈ 1.25 µg/mL). Moreover, the IC50 in data set [2] (setting [4]) was 127 nM; in data set [2] (setting [5]) it was no more than 1000 nM.
Take `CCOC(C(=O)c1ccc(-c2cc(OC)c(Cl)c(OC)c2)o1)c1ccc(-c2nnc(C)s2)cc1` (centres unmarked) [Compound A, 1-(5-(4-chloro-3,5-dimethoxyphenyl)furan-2-yl)-2-ethoxy-2-(4-(5-methyl-l,3,4-thiadiazol-2-yl)phenyl)ethan-1-one, reference compound]: the solubility at 24 h in data set [1] is less than 1 µM.
Regarding `CC(C)Cn1c(=O)n(C)c(=O)c2[nH]cnc21` [IBMX], the IC50 in data set [3] was 2600 nM.
